Test results from patent publication US20140004062A1, “COMPOSITION INCLUDING 3-BROMO-4,5-DIHYDROXYBENZALDEHYDE COMPOUND AS EFFECTIVE COMPONENT FOR PROTECTING AND TREATING SKIN CELL AGANIST ULTRAVIOLET” (Jeju National University Industry-Academic Cooperation …, priority 2012, published 2014).

Tests used:
HaCaT keratinocytes [1] = test: Intracellular ROS induced by H2O2, DCF-DA method; assay type: cell-based, human; details: H2O2 1 mM
Experimental: (§1) The DCF-DA method was used to detect intracellular ROS levels in HaCaT keratinocytes generated by either H2O2 or UVB radiation. For the detection of ROS in H2O2-treated cells, cells were seeded at a density of 1.5×10^5 cells/well. Sixteen hours after plating, cells were treated with BDB at a concentration of 10, 20, 30 μM and 2 mM NAC. After 30 min, H2O2 (1 mM) was added to the plate. Cells were incubated for an additional 30 min at 37° C., and DCF-DA solution (25 μM) was then added. Ten minutes after the addition of DCF-DA, the fluorescence of 2′,7′-dichlorofluorescein (DCF) was detected and quantified using a PerkinElmer LS-5B spectrofluorometer (PerkinElmer, Waltham, Mass., USA). For the detection of ROS in UVB-exposed cells, cells were treated with BDB as above. After one hour, cells were exposed to UVB radiation at a dose of 30 mJ/cm^2. […] Cells were incubated for an additional 24 h at 37° C., DCF-DA solution (25 μM) was added and detected as above.

[2] = DPPH radical removal ability; assay type: physicochemical; details: 3 h
Experimental: BDB at a concentration of 10, 20, 30 μM and 2 mM NAC were added to a 1×10^−4 M solution of DPPH in methanol. The resulting reaction mixture was shaken vigorously. After 3 h, the amount of unreacted DPPH was measured at 520 nm using a spectrophotometer.

HaCaT keratinocytes [3] = test: Intracellular ROS induced by UVB, DCF-DA method; assay type: cell-based, human; details: UVB 30 mJ/cm^2, 24 h
Experimental: as §1

HaCaT cells [4] = test: Cytoplasmic histone-associated DNA fragmentation kit; assay type: cell-based, human; details: UVB-irradiated cells treated with BDB
Experimental: Cellular DNA fragmentation was assessed by analyzing the extent of cytoplasmic histone-associated DNA fragmentation using a kit from Roche Diagnostics (Portland, Oreg., USA) according to the manufacturer's instructions. A cytoplasmic histone-associated DNA fragmentation was increased in UVB-irradiated cells as compared with control cells. The level of DNA fragmentation was decreased in UVB-irradiated cells that were treated with BDB (see FIG. 4c).

[5] = test system: hematopoietic necrosis virus; details: cited from earlier work
[6] = UVB absorption analysis, ultraviolet/visible spectrophotometer; assay type: physicochemical
Experimental: To study the UVB absorption spectra of BDB, which was diluted in DMSO at a ratio 1:500 (v/v), it was scanned by UV at 200-500 nm using Biochrom Libra S22 ultraviolet/visible spectrophotometer.

[7] = test system: infectious pancreatic necrosis virus; details: cited from earlier work
[8] = Detection of hydroxyl radical, Fenton reaction, ESR spectrometry; assay type: physicochemical; details: BDB 30 μM; signal without BDB 3851
Experimental: The hydroxyl radical was generated by the Fenton reaction (H2O2+FeSO4) and then reacted with DMPO. The resultant DMPO/.OH adducts were detected using an ESR spectrometer. The ESR spectrum was recorded 2.5 min after a phosphate buffer solution (pH 7.4) was mixed with 0.2 mL each of 0.3 M DMPO, 10 mM FeSO4, 10 mM H2O2, and BDB (30 μM). The ESR spectrometer parameters were set at a magnetic field of 336 mT, power of 1.00 mW, frequency of 9.4380 GHz, modulation amplitude of 0.2 mT, gain of 200, scan time of 0.5 min, scan width of 10 mT, time constant of 0.03 sec, and temperature of 25° C.

HaCaT cells [9] = test: Lipid peroxidation, 8-isoprostane enzyme immunoassay; assay type: cell-based, human; details: UVB-exposed cells treated with BDB, 24 h; UVB alone 3.1 pg/mg
Experimental: (§2) A cell was exposed to UVB, and then after 24 hours, effects of BDB in inhibiting the cell membrane lipid peroxidation, a protein modification, and a cell DNA damage of UVB-irradiated cell was observed. Lipid peroxidation was assayed by the determination of 8-isoprostane levels in the culture medium. A commercial enzyme immunoassay (Cayman Chemical, Ann Arbor, Mich., USA) was employed according to the manufacturer's instructions. Lipid peroxidation was also estimated using a fluorescent probe, DPPP. Cells were incubated with 5 μM DPPP for 15 min in the dark and then exposed to UVB. DPPP fluorescence image was captured using a Zeiss Axiovert 200 inverted microscope at an excitation wavelength of 351 nm and an emission wavelength of 380 nm and quantified.

HaCaT cells [10] = test: Lipid peroxidation, DPPP fluorescent probe; assay type: cell-based, human; details: UVB-irradiated cells treated with BDB
Experimental: as §2

HaCaT cells [11] = test: Protein carbonyl formation ELISA; assay type: cell-based, human; details: UVB-irradiated cells treated with BDB
Experimental: The amount of carbonyl formation in protein was determined using an Oxiselect™ protein carbonyl ELISA kit purchased from Cell Biolabs (San Diego, Calif., USA) according to the manufacturer's instructions.

[12] = Detection of superoxide anion, xanthine/xanthine oxidase system, ESR spectrometry; assay type: physicochemical; details: BDB 30 μM; signal without BDB 2765
Experimental: The superoxide anion was produced via the xanthine/xanthine oxidase system and then reacted with a nitrone spin trap, DMPO. The DMPO/.OOH adducts were detected using a JES-FA electron spin resonance (ESR) spectrometer (JEOL, Tokyo, Japan). Briefly, ESR signaling was recorded 5 min after 20 μl of xanthine oxidase (0.25 U/mL) was mixed with 20 μl each of xanthine (5 mM), DMPO (1.5 M) and BDB (30 μM). The ESR spectrometer parameters were set at a magnetic field of 336 mT, power of 1.00 mW, frequency of 9.4380 GHz, modulation amplitude of 0.2 mT, gain of 500, scan time of 0.5 min, scan width of 10 mT, time constant of 0.03 sec, and temperature of 25° C.

HaCaT cells [13] = test: Sub-G1 hypodiploid cells, flow cytometry; assay type: cell-based, human; details: BDB 30 μM, UVB 1 h later, 24 h; UVB alone 17%, no UVB 1%
Experimental: Flow cytometry was performed in order to determine the apoptotic sub-G1 hypodiploid cells. Cells were treated with BDB at a concentration of 30 μM and exposed to UVB radiation 1 h later. Cells were incubated for an additional 24 h at 37° C. Cells were harvested, and fixed in 1 mL of 70% ethanol for 30 min at 4° C. Cells were washed twice with PBS, and then incubated for 30 min in the dark at 37° C. in 1 mL of PBS containing 100 μg propidium iodide and 100 μg RNase A. Flow cytometric analysis was performed using a FACS Calibur flow cytometer (Becton Dickinson, Mountain View, Calif., USA). Sub-G1 hypodiploid cells were assessed based on the histograms generated using the computer programs, Cell Quest and Mod-Fit.

HaCaT cells [14] = test: MTT assay, viability of HaCaT cells treated with BDB; assay type: cell-based, human; details: up to the concentration of 30 μM; tested at 10-50 μM
Experimental: (§3) Human keratinocytes (HaCaT cells) were obtained from the Amore Pacific Company (Gyeonggi-do, Republic of Korea). Cells were maintained at 37° C. in an incubator with a humidified atmosphere of 5% CO2. Cells were cultured in Dulbecco's modified Eagle's medium containing 10% heat-inactivated fetal calf serum, streptomycin (100 μg/mL) and penicillin (100 unit/mL).
(§4) The effect of BDB on the viability of HaCaT cells was assessed as follows. Cells were seeded in a 96-well plate at a density of 1×10^5 cells/mL. Sixteen hours after plating, BDB was added at a concentration of at 10, 20, 30, 40, and 50 μM. To evaluate the ability of BDB to protect keratinocytes against UVB-exposure, BDB was added at a concentration of 10, and 30 μM, and cells were exposed to UVB radiation one hour later and incubated at 37° C. for 24 h. Fifty microliter of MTT stock solution (2 mg/mL) was added to each well to yield a total reaction volume of 200 μl. After incubating the cells for 4 h, the plate was centrifuged at 800×g for 5 min, and the supernatants were aspirated. The formazan crystals in each well were dissolved in dimethylsulfoxide (150 μl), and the absorbance at 540 nm was read on a scanning multi-well spectrophotometer.

HaCaT cells [15] = test: Nuclear staining with Hoechst 33342, apoptotic bodies; assay type: cell-based, human; details: BDB 30 μM, UVB 1 h later, 24 h; UVB alone 16
Experimental: Cells were treated with BDB at a concentration of 30 μM and exposed to UVB radiation 1 h later. Cells were incubated for an additional 24 h at 37° C. Hoechst 33342 (1.5 μL of a 10 mg/mL stock), a DNA-specific fluorescent dye, was added to each well, and the cells were incubated for 10 min at 37° C. The stained cells were visualized under a fluorescence microscope equipped with a CoolSNAP-Pro color digital camera. The degree of nuclear condensation was evaluated, and the apoptotic cells were quantified.

HaCaT cells [16] = test: Comet assay, oxidative DNA damage; assay type: cell-based, human; details: UVB-exposed cells treated with BDB; UVB alone 37%
Experimental: The degree of oxidative DNA damage was determined in a comet assay. Cell suspension was mixed with 75 μL of 0.5% low melting agarose (LMA) at 39° C. and the mixture was spread on a fully frosted microscopic slide pre-coated with 200 μL of 1% normal melting agarose (NMA). After solidification of the agarose, the slide was covered with another 75 μl of 0.5% LMA and then immersed in a lysis solution (2.5 M NaCl, 100 mM Na-EDTA, 10 mM Tris, 1% Trion X-100 and 10% DMSO, pH 10) for 1 h at 4° C. The slides were then placed in a gel-electrophoresis apparatus containing 300 mM NaOH and 10 mM Na-EDTA (pH 13) for 40 min to allow for DNA unwinding and the expression of the alkali-labile damage. An electrical field was then applied (300 mA, 25 V) for 20 min at 4° C. to draw the negatively charged DNA towards the anode. The slides were washed three times for 5 min at 4° C. in a neutralizing buffer (0.4 M Tris, pH 7.5), stained with 75 μL of propidium iodide (20 μg/mL) and observed using a fluorescence microscope and an image analyzer (Kinetic Imaging, Komet 5.5, UK). The percentage of total fluorescence in the DNA tails and the tail length of 50 cells per slide were recorded.

HaCaT cells [17] = test: MTT assay, viability of UVB-exposed HaCaT cells; assay type: cell-based; details: Homo sapiens, light or radiation study, UVB 1 h later, 24 h, untreated UVB cells 65%, read-out: viability of the cell exposed to UVB
Experimental: as §3, §4

[18] = UV/visible scan 200 nm to 500 nm

CC(=O)N[C@@H](CS)C(=O)O [NAC, N-acetyl cysteine, reference compound]
intracellular ROS induced by H2O2 removed (HaCaT keratinocytes [1]; 2 mM): 80% | DPPH radical scavenged ([2]; 2 mM, positive control): 89% | intracellular ROS induced by UVB removed (HaCaT keratinocytes [3]; 2 mM): 22%

O=Cc1cc(O)c(O)c(Br)c1 [BDB, 3-Bromo-4,5-dihydroxybenzaldehyde]
level of cytoplasmic histone-associated DNA fragmentation (HaCaT cells [4]): decreased | antiviral effect [5]: antiviral effect | absorption peak 1 position [6, 18]: 288 nm | absorption peak 2 position [6, 18]: 357 nm | UVB absorption ability ([6]; diluted in DMSO 1:500 (v/v), scanned at 200-500 nm): exhibited the absorption ability at 280 to 320 nm | antiviral effect [7]: antiviral effect | hydroxyl radical signal (ESR, DMPO/.OH adducts) [8]: 3002 | 8-isoprostane level (lipid peroxidation) (HaCaT cells [9]): 1.9 pg/mg | DPPP fluorescence (lipid peroxidation) (HaCaT cells [10]): exhibited the fluorescence in the more small range | carbonyl formation induced by UVB (protein carbonyl level) (HaCaT cells [11]): inhibited | superoxide anion signal (ESR, DMPO/.OOH adducts) [12]: 2063 | intracellular ROS induced by H2O2 removed (HaCaT keratinocytes [1]; 10 μM): 64% | intracellular ROS induced by H2O2 removed (HaCaT keratinocytes [1]; 20 μM): 67% | intracellular ROS induced by H2O2 removed (HaCaT keratinocytes [1]; 30 μM): 70% | apoptotic sub-G1 DNA (HaCaT cells [13]): 8% | toxicity on human HaCaT keratinocyte (cell viability, MTT) (HaCaT cells [14]): does not exhibit toxicity | DPPH radical scavenged ([2]; 10 μM, 1×10^−4 M DPPH in methanol): 6% | DPPH radical scavenged ([2]; 20 μM, 1×10^−4 M DPPH in methanol): 21% | DPPH radical scavenged ([2]; 30 μM, 1×10^−4 M DPPH in methanol): 25% | intracellular ROS induced by UVB removed (HaCaT keratinocytes [3]; 10 μM): 17% | intracellular ROS induced by UVB removed (HaCaT keratinocytes [3]; 20 μM): 22% | intracellular ROS induced by UVB removed (HaCaT keratinocytes [3]; 30 μM): 23% | Apoptotic Index (nuclear segments, Hoechst 33342) (HaCaT cells [15]): 9 | ratio of DNA in the tail (comet assay) (HaCaT cells [16]): 18% | viability at 10 µM (HaCaT cells [17]; BDB 10 μM): 73% | viability at 20 µM (HaCaT cells [17]; BDB 20 μM): 73% | viability at 30 µM (HaCaT cells [17]; BDB 30 μM): 77%
